Laboratory results as given in ChEMBL document CHEMBL2413070, “Histone Deacetylase 4 (HDAC4) Inhibitors: A Promising Treatment for Huntington's Disease” (ACS Med Chem Lett, 2013).

How the values were obtained:
[1] = target: T1, Protein deacetylase HDAC6 (Homo sapiens, UniProt Q9UBN7); experiment: Inhibition of recombinant full length human HDAC-6 expressed in baculovirus expression system using acetyl-Gly-Ala-Lys(acetyl)-AMC as substrate after 2 hrs by fluorescence microplate reader analysis
T1 sequence (Q9UBN7 whole entry): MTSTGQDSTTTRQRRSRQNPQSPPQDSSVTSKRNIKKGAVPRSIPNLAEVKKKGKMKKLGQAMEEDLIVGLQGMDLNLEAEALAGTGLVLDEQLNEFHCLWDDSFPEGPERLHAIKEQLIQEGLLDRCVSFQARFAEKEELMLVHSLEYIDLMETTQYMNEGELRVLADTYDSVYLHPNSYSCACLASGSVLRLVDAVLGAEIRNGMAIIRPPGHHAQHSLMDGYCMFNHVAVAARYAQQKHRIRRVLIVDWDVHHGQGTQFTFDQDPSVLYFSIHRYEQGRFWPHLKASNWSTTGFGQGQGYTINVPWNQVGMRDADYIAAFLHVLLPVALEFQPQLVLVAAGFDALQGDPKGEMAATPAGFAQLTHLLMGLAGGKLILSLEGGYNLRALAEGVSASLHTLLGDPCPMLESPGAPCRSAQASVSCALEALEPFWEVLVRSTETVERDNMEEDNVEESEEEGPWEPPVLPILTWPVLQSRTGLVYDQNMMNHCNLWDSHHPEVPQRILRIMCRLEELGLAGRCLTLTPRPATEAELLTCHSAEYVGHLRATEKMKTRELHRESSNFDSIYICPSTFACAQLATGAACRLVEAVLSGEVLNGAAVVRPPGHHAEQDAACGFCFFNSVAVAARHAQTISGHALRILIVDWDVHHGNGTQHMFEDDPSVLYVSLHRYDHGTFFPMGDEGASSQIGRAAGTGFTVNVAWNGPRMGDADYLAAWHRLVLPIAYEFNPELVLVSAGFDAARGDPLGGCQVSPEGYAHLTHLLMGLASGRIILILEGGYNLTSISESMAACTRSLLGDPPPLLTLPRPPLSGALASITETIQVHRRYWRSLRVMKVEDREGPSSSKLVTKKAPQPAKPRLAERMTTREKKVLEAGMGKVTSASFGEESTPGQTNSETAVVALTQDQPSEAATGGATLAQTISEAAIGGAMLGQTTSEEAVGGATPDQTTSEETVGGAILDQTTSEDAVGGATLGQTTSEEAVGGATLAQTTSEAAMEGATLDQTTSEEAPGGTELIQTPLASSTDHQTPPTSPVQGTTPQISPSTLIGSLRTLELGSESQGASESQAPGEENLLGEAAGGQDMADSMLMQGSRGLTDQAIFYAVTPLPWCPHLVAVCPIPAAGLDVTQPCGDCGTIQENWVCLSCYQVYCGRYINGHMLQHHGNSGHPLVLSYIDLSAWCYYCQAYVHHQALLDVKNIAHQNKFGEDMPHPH

Histone deacetylase 1 = Histone deacetylase 1 (Homo sapiens, UniProt Q13547); experiment: Inhibition of recombinant full length human HDAC-1 expressed in baculovirus expression system using acetyl-Gly-Ala-Lys(acetyl)-AMC as substrate after 2 hrs by fluorescence microplate reader analysis
Chain of Histone deacetylase 1 (Q13547 whole entry): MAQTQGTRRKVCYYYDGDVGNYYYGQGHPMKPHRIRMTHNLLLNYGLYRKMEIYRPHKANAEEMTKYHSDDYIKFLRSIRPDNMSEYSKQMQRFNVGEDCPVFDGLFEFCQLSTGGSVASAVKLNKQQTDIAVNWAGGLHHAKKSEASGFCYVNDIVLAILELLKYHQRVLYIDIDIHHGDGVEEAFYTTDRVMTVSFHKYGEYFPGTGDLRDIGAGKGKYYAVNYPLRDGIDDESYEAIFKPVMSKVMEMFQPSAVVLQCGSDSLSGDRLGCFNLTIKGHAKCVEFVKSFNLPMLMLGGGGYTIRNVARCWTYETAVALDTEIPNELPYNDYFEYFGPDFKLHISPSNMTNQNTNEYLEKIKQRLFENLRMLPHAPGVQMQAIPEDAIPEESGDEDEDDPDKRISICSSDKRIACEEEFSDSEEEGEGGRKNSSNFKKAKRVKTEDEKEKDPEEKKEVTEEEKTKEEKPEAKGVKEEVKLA

Row | IC50 [1] | IC50 (Histone deacetylase 1) | Structure (SMILES)
1 | > 10 µM | > 10 µM | C[C@H](CN(C)Cc1ccccc1)NC(=O)c1ccc(-c2noc(C(F)(F)F)n2)nc1
2 | > 10 µM | > 10 µM | CCN(CC)C[C@@H](C)NC(=O)c1ccc(-c2noc(C(F)(F)F)n2)nc1
